# In a melting point compilation (Tetko et al.; mined from patent text by program, amines drawn as free bases though some values may be those of a salt):
row,melting point,SMILES
1,228 to 233 °C,Cc1c(C)c(N2CCN(c3ccc(S(C)(=O)=O)cc3)CC2)c(C)c2c1OC(C)C2 (stereo not given)
2,155 to 157 °C,Cc1c(-c2ccncc2)sc(-c2ccncc2)c1C(C)O (stereo not given)
3,200 to 202 °C,COCCN(C)CCc1c(-c2ccc(N)cc2)sc2c1c(=O)n(-c1ccc3c(c1)OCO3)c(=O)n2Cc1c(F)cccc1F
4,164 to 167 °C,COc1c(Cl)ccc(-c2cc(N)c(Cl)c(C(=O)NOCc3cnc(Cl)s3)n2)c1F
5,206 to 210 °C,O=C(c1ccc2c(=O)n(CCCCN3CC=C(c4ccccc4)CC3)c(=O)[nH]c2c1)N1CCOCC1
6,247 °C,O=C(Nc1ccc2ccccc2c1-c1c(P(=O)(c2ccccc2)c2ccccc2)ccc2ccccc12)c1ccccc1
7,235 °C,CNC(=S)N1CCc2ncn(C)c2C1
8,139 to 140 °C,CCOC(=O)C(C)n1cc(-c2ccc(Oc3ccccc3)cc2)c2c(N)ncnc21 (stereo not given)
9,45.5 to 47 °C,CCOC(=O)C1=Cc2c(F)cccc2OC1C(F)(F)F (stereo not given)
10,122 to 124 °C,O=C(c1cccs1)c1cccc2c1CCC2C(=O)O (stereo not given)
11,174 to 176 °C,CCN(CC)c1ccc(C2(c3ccc(N(C)C)cc3)OC(=O)c3c(Cl)c(Cl)c(Cl)c(Cl)c32)c(N(CC)CC)c1 (stereo not given)
12,80 to 82 °C,Cc1ccc(NC(=O)C(C)(C)CCCOc2cc(C)ccc2C)c(C)c1
13,75 °C,C[C@]1(O)c2ccccc2CC[C@H]1O (relative stereo)
14,61.5 to 62 °C,CCCCCCCCCc1nnc(C2=C(O)c3ccccc3S(=O)(=O)N2C)o1
15,170 to 172 °C,COc1ccc([C@@H]2c3ccccc3C[C@@H]3CC(=O)N(C)CCN32)cc1 (racemic)
16,154 to 155 °C,CCOC(=O)C1=C(CC)NC(CC)=C(C(=O)OCC)C1c1ccccc1/C=C/C(=O)OC(C)(C)C

row,melting point,SMILES
1,134 to 137 °C,CSCc1cc(N)ccc1N1C(=O)c2ccc(Cl)cc2C1=O
2,197 to 200 °C,O=C(O)c1ccc(NCc2ccc(F)cc2)cn1
3,130 to 132 °C,Cc1cc(C(=O)OC(C)(C)C)c(NC(=O)Nc2ccc(Oc3ccccc3)cc2)s1
4,95 to 100 °C,N#CC[C@H](NC(=O)c1ccc2ccccc2c1)C(=O)O
5,228 °C,COc1cc(-c2n[nH]c(N=C(c3ccccc3)c3ccccc3)n2)c(OC)cc1C
6,144 to 145 °C,O=c1cc(-c2ccccc2)oc2cccc(F)c12
7,256 to 259 °C,Cc1cccc(-c2nc(Nc3ccc(Cl)cc3)c3ccccc3n2)n1
8,97 to 97.5 °C,Fc1ccc(-c2ncn(CCCN3CCOCC3)c2-c2ccnc(Cl)c2)cc1
9,158 to 160 °C,CCCCc1nc(Cl)c(CNC(=O)c2cc3c(OCC(O)CN(C(=O)OC(C)(C)C)C(C)C)cccc3[nH]2)n1Cc1ccc(-c2ccccc2C(=O)OC)cc1 (stereo not given)
10,47 to 48 °C,CCC1=C(O)C(=O)CO1
11,47 to 54 °C,N#CCC(=O)C(F)(F)C(F)(F)F
12,115 to 116 °C,COc1ccc([N+](=O)[O-])cc1C=CC1=NC(C)(C)CO1
13,51 to 53 °C,CC(C)(C#N)c1cc(Cn2cncn2)cc(C(C)(C)C(N)=O)c1
14,> 300 °C,Nc1cc2[nH]c(=O)c(C(=O)O)nc2cc1F
15,240 to 241 °C,CC(C)c1cccc(C(C)C)c1NC(=O)C(Cc1ccccc1)NC(=O)NCc1ccccc1 (stereo not given)

# Second part, the compound before the results:
row,SMILES,melting point
1,Cc1c(CC(F)(F)C(F)(F)C(F)(F)F)c(-c2ccc(S(N)(=O)=O)cc2)c2n1CCC2,221 °C
2,CN(C)c1ccc(C2CC3(C)C(O)CCC3C3CCC4=CC(=O)CCC4=C23)cc1 (stereo not given),166 to 167 °C
3,COc1ccc2c(=O)c(-c3ccc(C)cc3)c(SCc3ccncc3)oc2c1,157 to 160 °C
4,N#Cc1cnc2c(oc3ccccc32)c1Nc1cccc(Br)c1,242 to 245 °C
5,CC(C)Cc1c(C(=O)OC(C)(C)C)c(C(F)F)nc(C(F)(F)F)c1C(=O)OC(C)(C)C,48 to 50 °C
6,CCCOc1ccc(/C=C/C(=O)O)cc1-c1nc2c(CCC)nn(C)c2c(=O)[nH]1,229 to 230 °C
7,COc1ccc2c(c1)c(CC(=O)N(C)O)c(C)n2C(=O)c1ccc(Cl)cc1,170 to 171 °C
8,CC(=O)Nc1ccc(NCc2cnc3nc(N)nc(N)c3n2)cc1,> 260 °C
9,CSC(=N[N+](=O)[O-])NCc1ccccc1,77 to 80 °C
10,N#Cc1ccc(C(=O)NC(=S)NC2CC2)cc1,151 to 152 °C
11,O=[N+]([O-])c1cn2c(n1)O[C@@H](COc1ccc(N3CCC(Nc4ccc(OC(F)(F)F)cc4)CC3)cc1)CC2,189 to 190 °C
12,CCCNC(=O)CP(=O)(O)O,155 to 160 °C
13,N#Cc1ccc2c(c1)nc1n2CCC(=O)N1,> 340 °C
14,CCCCN(CCCC)c1ccc(C=CC2=C(OC)C(=CC=CC3=C(C#N)C(=C(C#N)C#N)OC3(C)C)CC(C)(C)C2)c(OC)c1,244 to 246 °C
15,CON=C(C(=O)OC)c1ccccc1ON=C(C)c1cccc(C)c1,90 °C
16,COC(=O)c1sccc1S(=O)(=O)NC(=O)Nc1nc(OC)c2cc(C)oc2n1,194 to 196 °C
17,CCc1ccc(-n2c(-c3ccccn3)nc(SC)c(C#N)c2=O)cc1,172 to 175 °C
18,COC(=O)c1ccc2c(c1)C(SCCCl)c1ccccc1CO2 (stereo not given),100 to 102 °C
19,CC(=O)OC1Oc2ccc(Br)cc2C1(C)C (stereo not given),73 to 80 °C
20,C1=NNSc2ccccc21,314 °C
21,CC(=O)Nc1sc(C(=O)OCc2ccccc2)c(C)c1C(=O)OC(C)(C)C,157 to 158 °C
22,CCN1CCC(c2c[nH]c3ccc(NS(C)(=O)=O)cc23)CC1,179 to 181 °C

row,SMILES,melting point
1,Cc1c(NC(=O)c2ccc(-c3ccc(OC(F)(F)F)cc3)cc2F)ccc2cc(CN3CCCC3)cnc12,175 to 178 °C
2,Clc1cccc(Cc2ccc(OCCCn3cccn3)c(Cl)c2)c1,52.5 °C
3,CC1=C(c2ccncc2)SC(c2ccco2)C(=O)N1 (stereo not given),178 to 180 °C
4,Cc1cnc(-c2ccc(CBr)cc2)nc1,129 to 131 °C
5,O=C(c1c[nH]c2c1ccc1c3ccccc3[nH]c12)C(F)(F)F,> 295 °C
6,Cc1ccc2c(c1)C(O)(C1=CCN(C)CC1)CC2c1ccc(F)cc1 (stereo not given),176 to 178 °C
7,Cc1ccc(-n2nc(C(=O)CCCO)cc2-c2ccc(S(C)(=O)=O)cc2)cc1,159 to 161 °C
8,CC(=O)Nc1ccc(SC2SCC(OC(C)=O)C(OC(C)=O)C2OC(C)=O)cc1 (stereo not given),168 to 174 °C
9,Cc1nc2c(CO)cccn2c(=O)c1CCN1CCC(c2noc3cc(F)ccc23)CC1,186 °C
10,COc1ccc(F)cc1C(C)(C)CC(O)(Cn1cnc(=O)c2ccccc21)C(F)(F)F (stereo not given),118 to 121 °C
11,COC(=O)c1ccc2ccc(OC(=S)N(C)C)cc2c1,124 to 126 °C
12,O=C1C(Cl)=C(c2ccccc2)C(=O)N1Nc1ccccc1,144 to 146 °C
13,CC(C)[C@H](NC(=O)c1ccc(Cn2nnc(-c3ccc(OC(=O)C(C)(C)C)cc3)n2)cc1)C(=O)OCc1ccccc1,157 to 159 °C
14,O=C(O)c1c(Cl)cc(Cl)c(Cl)c1C(=O)O,150 to 153 °C
15,COC(=O)c1c(C(=O)OC)c(-c2ccc(Cl)cc2)n2c1Cc1c(n(C)c3ccccc13)C2,264 to 265 °C
16,Fc1ccc(Cn2c(NC3CCN(CCNc4ncccn4)CC3)nc3ccccc32)cc1,168 °C
17,CC(C)(C)Oc1ccc2cc(C=O)ccc2c1,51 to 52 °C
18,CCN1C(=O)C(C)(C)C(=O)N(C)c2cc(CN(CCc3cccnc3)S(=O)(=O)c3ccccc3)ccc21,143 to 146 °C
19,O=C(Nc1ccc(F)cc1F)Nc1oc(=O)c2ccc(Cl)cc2c1-c1ccccc1,196 to 197 °C
20,CC1(C)CC(c2ccc(Cl)cc2)=C(c2ccc(S(N)(=O)=O)cc2)C1,144 to 145 °C
21,CN1CCC(OC(c2cccc(C#CCN)c2)c2nc3ccccc3[nH]2)CC1 (stereo not given),101 °C
22,Cc1ccc([N+](=O)[O-])c2c1CCN2,125 to 127 °C

row,SMILES,melting point
1,CCOC(=O)C1=C(C#N)Nc2nccn2C1c1cccc([N+](=O)[O-])c1 (stereo not given),260 to 261 °C
2,O=C(CC[C@@H](C(=O)OCc1ccccc1)n1c2ccccc2c2ccccc21)OCCOC(=O)c1ccc(NC(=O)OCc2ccccc2)cc1,45 °C
3,CCOC(=O)c1cnc(-c2ccccc2)nc1OCc1ccc(OCc2nc(-c3ccco3)oc2C)c(OC)c1,142 to 143 °C
4,CC(C)(C)OC(=O)N[C@H]1CNC1=O,173 to 175 °C
5,O=C(NCC(=O)N1c2ccccc2N(Cc2ccccc2)C(=O)[C@H]2CCC[C@H]21)c1ccccc1 (relative stereo),201 to 203 °C
6,COc1cc2c(Nc3ccc(Cl)cc3F)ncnc2cc1OCC1CCOC1 (stereo not given),201 to 202 °C
7,CCOC(=O)C(C#N)(Cc1cc(OC)c(OC)c(OC)c1)C(OCC)OCC (stereo not given),95 to 97 °C
8,CCCCOc1nc2cccc(C(=O)OC)c2n1Cc1ccc(-c2ccccc2C#N)cc1,74 to 75 °C
9,COc1cc(N)c(Cl)cc1Cn1nc(-c2ccc(Cl)c(Cl)c2)oc1=O,196 to 198 °C
10,COc1ccc(COc2cncc3c2C(=O)c2c(F)ccc(Cl)c2C3=O)cc1,155 to 157 °C
11,O=C(Nc1ccccc1)Nc1ccnc(O)c1,198 to 200 °C
12,Cc1nc(C)c(-c2cncc(OC3SCC(O)C(O)C3O)c2)s1 (stereo not given),150 °C
13,CC(C)[C@H](NC(=O)OCc1ccccc1)C(=O)NC(Cc1ccccc1)C(O)C(N)Cc1ccccc1 (stereo not given in full),158 to 160 °C
14,Cn1ncc2[nH]c3cccc(F)c3c(=O)c21,> 300 °C
15,CN(C)C1CCN(Cc2ccc(COc3cccc4c3CN(C3CCC(=O)NC3=O)C4=O)cc2)CC1 (stereo not given),209 to 211 °C
16,Cn1cncc1C(O)(c1ccc(F)cc1)c1ccc2c(c1)c(-c1cccc(Cl)c1)nc1nnnn12 (stereo not given),200 °C
17,CCOC(=O)c1c(N2CCN(C(=O)c3cccs3)CC2)c2cc(Cl)cnc2n(Cc2cccc(F)c2)c1=O,186 °C
18,Nc1cc(F)ccc1C(=O)C1CCN(CCn2c(=O)[nH]c3ccccc3c2=O)CC1,270 °C
19,CCCc1c(C(=O)C(C)C)c2ccc(C(=O)O)cc2n1Cc1ccc(F)cc1Cl,243 to 244 °C
20,Cc1noc(NS(=O)(=O)c2ccccc2-c2ccccc2)c1Br,145 to 147 °C
